The text below walks through data of patent US9512073B2, “Amino acid-, peptide-and polypeptide-lipids, isomers, compositions, and uses thereof” (Massachusetts Institute of Technology, priority 2011, dated 2016).

“Also recorded” adds a separate entry of the source.

One assay deals with firefly luciferase. Nature of the assay: In vitro siRNA transfection assay (luciferase silencing) in HeLa cells with apolipoproteins. Type of assay: cell-based. As to conditions: for order of silencing effects: with addition of ApoE3 (ApoE), siRNA 50 ng/well. The method, then:
HeLa cells, stably expressing firefly luciferase and Renilla luciferase, were seeded (14,000 cells/well) into each well of an opaque white 96-well plate (Corning-Costar) and allowed to attach overnight in growth medium. Growth medium was composed of 90% phenol red-free DMEM, 10% FBS, 100 units/ml penicillin, […] streptomycin (Invitrogen). Cells were transfected with LNPs formulated with anti-luciferase siRNA by addition of formulated particles to growth medium. Transfections were performed in quadruplicate. Cells were allowed to grow for 1 d at 37° C., 5% CO2 and were then analyzed for luciferase expression. Control experiments were performed with Lipofectamine 2000, as described by the vendor (Invitrogen). Firefly and Renilla luciferase expression was analyzed using Dual-Glo assay kits (Promega). Luminescence was measured using a Victor3 luminometer (Perkin Elmer). Effects of apolipoproteins were evaluated through an in vitro siRNA transfection assay in HeLa cells as previously reported. HeLa cells, stably expressing firefly luciferase and Renilla luciferase were seeded in an opaque white 96-well plate (Corning-Costar) overnight. Cells were transfected by cKK-E12 formulated with 50 ng of firefly-specific siLuc in quadruplicate. Apolipoproteins (Fitzgerald Industries) were incubated with cKK-E12 formulations for 5 mins before adding to cells. After 24 h incubation at 37° C., 5% CO2, cells were analyzed for luciferase expression using Dual-Glo assay kits (Promega). For visualization of cell uptake, cKK-E12 was formulated with an Alexa-Fluor siRNA and incubated with Hela cells for 3 h. Cells were then fixed in 4% paraformaldehyde, permeabilized with 0.1% saponin and stained with Hoescht. All images were acquired using an Opera spinning disc confocal system (Perkin Elmer), and the data was analyzed using Acapella Software (Perkin Elmer).

For a further assay, the system named is Factor VII. Put plainly: In vivo Factor VII gene silencing in mice. The arrangement: species or system C57BL/6 mice. On the procedure:
APPL, distearoyl phosphatidylcholine (DSPC), cholesterol and mPEG2000-DMG were solubilized in 90% ethanol at a molar ratio of 50:10:38.5:1.5. The siRNA (against firefly luciferase or fVII) was solubilized in 10 mM citrate, pH 3 buffer at a concentration of 0.4 mg/mL. The ethanolic lipid solution and the aqueous siRNA solution were pumped by means of a syringe pump through a microfluidic mixing chamber to spontaneously form siRNA-containing lipid nanoparticles. Lipids were combined with siRNA at a total lipid to siRNA ratio of 7:1 (wt:wt). These formulations were dialyzed against PBS to remove ethanol and exchange buffer. […]
C57BL/6 mice (Charles River Labs) were used for siRNA silencing experiments. […] After 48 or 72 h, body-weight gain/loss was measured and mice were anaesthetized by isofluorane inhalation for blood sample collection by retroorbital eye bleed. Serum was isolated with serum separation tubes (Falcon tubes, Becton Dickinson) and Factor VII protein levels were analyzed by chromogenic assay (Biophen FVII, Aniara Corporation). A standard curve was constructed using samples from PBS-injected mice and relative Factor VII expression was determined by comparing treated groups to untreated PBS control. […]

For the compound `CCCCCCCCCCCCN(CCCCCCCCCCCC)CCCCC1NC(=O)C(CCCCN(CCCCCCCCCCCC)CCCCCCCCCCCC)NC1=O` (centres unmarked) [cKK-A12], in the assay on firefly luciferase, the “order of silencing effects” value is recorded as “cKK-E12>cKK-A12>cKK-O12”. In the assay with firefly luciferase (without addition of ApoE3, siRNA 50 ng/well), the “luciferase silencing, relative potency” value is “more potent than cKK-E12 and cKK-O12”.

With `CCCCCCCCCCC(O)CN(CCCCC1NC(=O)C(CCCCN(CC(O)CCCCCCCCCC)CC(O)CCCCCCCCCC)NC1=O)CC(O)CCCCCCCCCC` (centres unmarked) [cKK-E12], the “Factor VII silencing, relative potency” value is “lead compound; also recorded: most potent material” in the assay with Factor VII (lower dose of 0.1 mg/kg, 0.1 mg/kg); “more potent than aldehyde and acrylate derivatives” in the assay with Factor VII (siRNA formulation, systemic administration, dose of 1 mg/kg). The “order of silencing effects” value in the assay with firefly luciferase was “cKK-E12>cKK-A12>cKK-O12”.
